Data published in patent US9040459B2, “Herbicidal compositions comprising aminopyralid and propanil” (Dow AgroSciences, LLC., priority 2012, dated 2015).

Columns and labels:
Assay in all cases: Postemergence herbicidal activity under field conditions, visual weed control
Type in all cases: in vivo
Conditions in all cases: post-emergence field trial
[1] = system: Cyperus iria L. (rice flatsedge, CYPIR)
Description: (§1) These trials were conducted under field conditions in Espinal, Colombia. Trial sites were located in commercially grown fields of common rice (Oryza sativa). The rice crop was grown using normal cultural practices for fertilization, seeding, and maintenance to ensure good growth of the crop and the weeds. The trials were conducted using normal research methodology. Trial plots were 2 meters (m) wide by 5 m long. All treatments were applied using a randomized complete block trial design with 4 replications per treatment. The trial sites had naturally occurring populations of weeds. The weed spectrum included, but was not limited to, Cyperus iria L. (rice flatsedge, CYPIR), Digitaria horizontalis (Jamaican crabgrass, DIGHO), Eleusine indica L. Gaertn. (goosegrass, ELEIN), Portulaca oleracea L. (common purslane, POROL) and Phyllanthus niruri L. (gripeweed, PYLNI). The plots were treated with a postemergence foliar application 15 to 20 days after emergence of the rice.
(§2) Treatments consisted of tank mixes of aminopyralid triisopropanolammonium salt (MILESTONE 240SL) and a commercially available formulation of propanil herbicide (STAM 480EC). The application volume was 200 liters per hectare (L/ha) of water. All applications were made using precision gas hand sprayers with a 3 m boom using flat fan 8002 nozzles to broadcast the treatments over the top of the rice and weeds.
(§3) The treated plots and control plots were rated blind at various intervals after application. Ratings were based on Percent (%) Visual weed control, where 0 corresponds to no injury and 100 corresponds to complete kill.
(§4) Colby's equation was used to determine the herbicidal effects expected from the mixtures (Colby, S. R. Calculation of the synergistic and antagonistic response of herbicide combinations. Weeds 1967 15, 20-22).
(§5) The following equation was used to calculate the expected activity of mixtures containing two active ingredients, A and B: Expected=A+B−(A×B/100)
(§6) A=observed efficacy of active ingredient A at the same concentration as used in the mixture;
(§7) B=observed efficacy of active ingredient B at the same concentration as used in the mixture.

[2] = system: Phyllanthus niruri L. (gripeweed, PYLNI)
Description: as §1, §2, §3, §4, §5, §6, §7

[3] = system: Portulaca oleracea L. (common purslane, POROL)
Description: as §1, §2, §3, §4, §5, §6, §7

[4] = system: Eleusine indica L. Gaertn. (goosegrass, ELEIN)
Description: as §1, §2, §3, §4, §5, §6, §7

[5] = system: Digitaria horizontalis (Jamaican crabgrass, DIGHO)
Description: as §1, §2, §3, §4, §5, §6, §7

For `Nc1cc(Cl)nc(C(=O)O)c1Cl` [Aminopyralid, 4-amino-3,6-dichloro-2-pyridinecarboxylic acid], the “Visual Weed Control (%) CYPIR 15 DAA Obs” value ([1]; aminopyralid 4 g ae/ha alone) was 4.5%, the “Visual Weed Control (%) CYPIR 32 DAA Obs” value ([1]; aminopyralid 4 g ae/ha alone) was 0% and the “Visual Weed Control (%) CYPIR 32 DAA Obs” value ([1]; aminopyralid 8 g ae/ha alone) was 10%. For the same compound, the “Visual Weed Control (%) CYPIR 15 DAA Obs” value ([1]; aminopyralid 16 g ae/ha alone) was 15%, the “Visual Weed Control (%) CYPIR 32 DAA Obs” value ([1]; aminopyralid 16 g ae/ha alone) was 10% and the “Visual Weed Control (%) PYLNI 8 DAA Obs” value ([2]; aminopyralid 4 g ae/ha alone) was 0%. For the same compound, the “Visual Weed Control (%) PYLNI 8 DAA Obs” value ([2]; aminopyralid 8 g ae/ha alone) was 3%, the “Visual Weed Control (%) PYLNI 8 DAA Obs” value ([2]; aminopyralid 16 g ae/ha alone) was 3% and the “Visual Weed Control (%) POROL 8 DAA Obs” value ([3]; aminopyralid 4 g ae/ha alone) was 36%. The “Visual Weed Control (%) POROL 8 DAA Obs” value ([3]; aminopyralid 8 g ae/ha alone) was 68%, the “Visual Weed Control (%) POROL 8 DAA Obs” value ([3]; aminopyralid 16 g ae/ha alone) was 93% and the “Visual Weed Control (%) ELEIN 8 DAA Obs” value ([4]; aminopyralid 4 g ae/ha alone) was 0%. The “Visual Weed Control (%) ELEIN 8 DAA Obs” value ([4]; aminopyralid 8 g ae/ha alone) was 0%, the “Visual Weed Control (%) ELEIN 8 DAA Obs” value ([4]; aminopyralid 16 g ae/ha alone) was 0% and the “Visual Weed Control (%) DIGHO 8 DAA Obs” value ([5]; aminopyralid 8 g ae/ha alone) was 0%. The “Visual Weed Control (%) DIGHO 8 DAA Obs” value ([5]; aminopyralid 16 g ae/ha alone) was 0%.

With `CCC(=O)Nc1ccc(Cl)c(Cl)c1` [Propanil, N-(3,4-dichloro-phenyl)propanamide] the “Visual Weed Control (%) CYPIR 15 DAA Obs” value ([1]; propanil 480 g ai/ha alone) was 35%, the “Visual Weed Control (%) CYPIR 32 DAA Obs” value ([1]; propanil 480 g ai/ha alone) was 20% and the “Visual Weed Control (%) CYPIR 32 DAA Obs” value ([1]; propanil 960 g ai/ha alone) was 58%. The “Visual Weed Control (%) PYLNI 8 DAA Obs” value ([2]; propanil 480 g ai/ha alone) was 45%, the “Visual Weed Control (%) POROL 8 DAA Obs” value ([3]; propanil 480 g ai/ha alone) was 49% and the “Visual Weed Control (%) ELEIN 8 DAA Obs” value ([4]; propanil 480 g ai/ha alone) was 48%. For the same compound, the “Visual Weed Control (%) DIGHO 8 DAA Obs” value ([5]; propanil 480 g ai/ha alone) was 51%.
